Experimental data reported in PubChem BioAssay (NCI).
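Protocol summary: plate cells (96-well), add compound at 5 concentrations, incubate 48 h, interpolate endpoints linearly. TGI is the concentration that stops growth completely.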

Legend:
Experiment in all cases: NCI tumour cell line growth inhibition, 48 h
786-0 renal = tested on: 786-0 renal
A498 renal = tested on: A498 renal
A549 NSCLC = tested on: A549 NSCLC
ACHN renal = tested on: ACHN renal
BT-549 breast = tested on: BT-549 breast
CAKI-1 renal = tested on: CAKI-1 renal
CCRF-CEM leukemia = tested on: CCRF-CEM leukemia
COLO 205 colon = tested on: COLO 205 colon
DU-145 prostate = tested on: DU-145 prostate
EKVX NSCLC = tested on: EKVX NSCLC
HCC-2998 colon = tested on: HCC-2998 colon
HCT-116 colon = tested on: HCT-116 colon
HCT-15 colon = tested on: HCT-15 colon
HL-60(TB) leukemia = tested on: HL-60(TB) leukemia
HOP-62 NSCLC = tested on: HOP-62 NSCLC
HOP-92 NSCLC = tested on: HOP-92 NSCLC
HS 578T breast = tested on: HS 578T breast
HT29 colon = tested on: HT29 colon
IGROV1 ovarian = tested on: IGROV1 ovarian
K-562 leukemia = tested on: K-562 leukemia
KM12 colon = tested on: KM12 colon
LOX IMVI melanoma = tested on: LOX IMVI melanoma
M14 melanoma = tested on: M14 melanoma
MALME-3M melanoma = tested on: MALME-3M melanoma
MCF7 breast = tested on: MCF7 breast
MDA-MB-231 breast = tested on: MDA-MB-231 breast
MDA-MB-435 = tested on: MDA-MB-435
MDA-N = tested on: MDA-N
MOLT-4 leukemia = tested on: MOLT-4 leukemia
NCI-H226 lung = tested on: NCI-H226 lung
NCI-H23 lung = tested on: NCI-H23 lung
NCI-H460 lung = tested on: NCI-H460 lung
NCI-H522 lung = tested on: NCI-H522 lung
NCI/ADR-RES ovarian = tested on: NCI/ADR-RES ovarian
OVCAR-3 ovarian = tested on: OVCAR-3 ovarian
OVCAR-4 ovarian = tested on: OVCAR-4 ovarian
OVCAR-5 ovarian = tested on: OVCAR-5 ovarian
OVCAR-8 ovarian = tested on: OVCAR-8 ovarian
PC-3 prostate = tested on: PC-3 prostate
RPMI-8226 leukemia = tested on: RPMI-8226 leukemia
RXF 393 renal = tested on: RXF 393 renal
SF-295 CNS = tested on: SF-295 CNS
SF-539 CNS = tested on: SF-539 CNS
SK-MEL-2 melanoma = tested on: SK-MEL-2 melanoma
SK-MEL-5 melanoma = tested on: SK-MEL-5 melanoma
SK-OV-3 ovarian = tested on: SK-OV-3 ovarian
SN12C renal = tested on: SN12C renal
SNB-19 CNS = tested on: SNB-19 CNS
SNB-75 CNS = tested on: SNB-75 CNS
SR leukemia = tested on: SR leukemia
SW-620 colon = tested on: SW-620 colon
T-47D breast = tested on: T-47D breast
TK-10 renal = tested on: TK-10 renal
U251 CNS = tested on: U251 CNS
UACC-257 melanoma = tested on: UACC-257 melanoma
UACC-62 melanoma = tested on: UACC-62 melanoma
UO-31 renal = tested on: UO-31 renal
SF-268 CNS = tested on: SF-268 CNS
SK-MEL-28 melanoma = tested on: SK-MEL-28 melanoma

CCCCc1ccc(Nc2nc(=S)c3ncn(COCCO)c3[nH]2)cc1
TGI (786-0 renal): > 100 µM
TGI (A498 renal): > 100 µM
TGI (A549 NSCLC): > 100 µM
TGI (ACHN renal): > 100 µM
TGI (BT-549 breast): > 100 µM
TGI (CAKI-1 renal): > 100 µM
TGI (CCRF-CEM leukemia): 59.7 µM
TGI (COLO 205 colon): 44.5 µM
TGI (DU-145 prostate): > 100 µM
TGI (EKVX NSCLC): > 100 µM
TGI (HCC-2998 colon): > 100 µM
TGI (HCT-116 colon): > 100 µM
TGI (HCT-15 colon): > 100 µM
TGI (HL-60(TB) leukemia): 54.4 µM
TGI (HOP-62 NSCLC): > 100 µM
TGI (HOP-92 NSCLC): 63.4 µM
TGI (HS 578T breast): > 100 µM
TGI (HT29 colon): > 100 µM
TGI (IGROV1 ovarian): > 100 µM
TGI (K-562 leukemia): 51.7 µM
TGI (KM12 colon): > 100 µM
TGI (LOX IMVI melanoma): 76.1 µM
TGI (M14 melanoma): > 100 µM
TGI (MALME-3M melanoma): 47.1 µM
TGI (MCF7 breast): 54.1 µM
TGI (MDA-MB-231 breast): 57.6 µM
TGI (MDA-MB-435): > 100 µM
TGI (MDA-N): > 100 µM
TGI (MOLT-4 leukemia): > 100 µM
TGI (NCI-H226 lung): > 100 µM
TGI (NCI-H23 lung): > 100 µM
TGI (NCI-H460 lung): > 100 µM
TGI (NCI-H522 lung): 51.3 µM
TGI (NCI/ADR-RES ovarian): > 100 µM
TGI (OVCAR-3 ovarian): 74.4 µM
TGI (OVCAR-4 ovarian): > 100 µM
TGI (OVCAR-5 ovarian): > 100 µM
TGI (OVCAR-8 ovarian): > 100 µM
TGI (PC-3 prostate): > 100 µM
TGI (RPMI-8226 leukemia): 54 µM
TGI (RXF 393 renal): > 100 µM
TGI (SF-295 CNS): > 100 µM
TGI (SF-539 CNS): > 100 µM
TGI (SK-MEL-2 melanoma): 90.4 µM
TGI (SK-MEL-5 melanoma): > 100 µM
TGI (SK-OV-3 ovarian): > 100 µM
TGI (SN12C renal): > 100 µM
TGI (SNB-19 CNS): > 100 µM
TGI (SNB-75 CNS): 97.9 µM
TGI (SR leukemia): 66.7 µM
TGI (SW-620 colon): > 100 µM
TGI (T-47D breast): 46.8 µM
TGI (TK-10 renal): > 100 µM
TGI (U251 CNS): > 100 µM
TGI (UACC-257 melanoma): > 100 µM
TGI (UACC-62 melanoma): > 100 µM
TGI (UO-31 renal): > 100 µM

O=c1[nH]nc(Cc2ccccc2)n1/N=C\CC/C=N\n1c(Cc2ccccc2)n[nH]c1=O
TGI (786-0 renal): > 100 µM
TGI (A498 renal): > 100 µM
TGI (A549 NSCLC): > 100 µM
TGI (ACHN renal): > 100 µM
TGI (BT-549 breast): > 100 µM
TGI (CAKI-1 renal): > 100 µM
TGI (CCRF-CEM leukemia): > 100 µM
TGI (COLO 205 colon): > 100 µM
TGI (DU-145 prostate): > 100 µM
TGI (EKVX NSCLC): > 100 µM
TGI (HCC-2998 colon): > 100 µM
TGI (HCT-116 colon): 48.7 µM
TGI (HCT-15 colon): 75 µM
TGI (HL-60(TB) leukemia): > 100 µM
TGI (HOP-62 NSCLC): 88.4 µM
TGI (HOP-92 NSCLC): > 100 µM
TGI (HS 578T breast): 53.1 µM
TGI (HT29 colon): 83.3 µM
TGI (IGROV1 ovarian): 40.7 µM
TGI (K-562 leukemia): > 100 µM
TGI (KM12 colon): > 100 µM
TGI (LOX IMVI melanoma): > 100 µM
TGI (M14 melanoma): > 100 µM
TGI (MALME-3M melanoma): 77.7 µM
TGI (MCF7 breast): > 100 µM
TGI (MDA-MB-231 breast): > 100 µM
TGI (MDA-MB-435): > 100 µM
TGI (MDA-N): > 100 µM
TGI (MOLT-4 leukemia): > 100 µM
TGI (NCI-H226 lung): 83.1 µM
TGI (NCI-H23 lung): 66.6 µM
TGI (NCI-H522 lung): > 100 µM
TGI (NCI/ADR-RES ovarian): 41.5 µM
TGI (OVCAR-3 ovarian): > 100 µM
TGI (OVCAR-4 ovarian): > 100 µM
TGI (OVCAR-5 ovarian): > 100 µM
TGI (OVCAR-8 ovarian): 58.9 µM
TGI (PC-3 prostate): > 100 µM
TGI (RPMI-8226 leukemia): 80.9 µM
TGI (RXF 393 renal): 72.5 µM
TGI (SF-268 CNS): 77.7 µM
TGI (SF-295 CNS): > 100 µM
TGI (SF-539 CNS): 66.3 µM
TGI (SK-MEL-2 melanoma): 90.3 µM
TGI (SK-MEL-28 melanoma): > 100 µM
TGI (SK-MEL-5 melanoma): > 100 µM
TGI (SK-OV-3 ovarian): > 100 µM
TGI (SN12C renal): > 100 µM
TGI (SNB-19 CNS): > 100 µM
TGI (SNB-75 CNS): 58.7 µM
TGI (SR leukemia): > 100 µM
TGI (SW-620 colon): > 100 µM
TGI (T-47D breast): > 100 µM
TGI (TK-10 renal): > 100 µM
TGI (U251 CNS): > 100 µM
TGI (UACC-257 melanoma): > 100 µM
TGI (UACC-62 melanoma): 46.6 µM
TGI (UO-31 renal): > 100 µM
